This is an account of results in patent publication US10738057B2, “Tertiary alcohols as PI3K-γ inhibitors” (Incyte Corporation, priority 2017, dated 2020).

The target of assay [1] is PI3Kγ (p110γ) Recombinant Human Protein (Homo sapiens (Human), UniProt P48736). Description: PI3K-γ scintillation proximity assay. As to conditions: 20 μM PIP2, 2 μM ATP, 13 nM PI3Kγ, 120 min, room temperature. It counts as biochemical. Put shortly: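 Radiometric SPA in 20 mM MOPS pH 6.7, 10 mM MgCl2, 5 mM DTT, 0.03% CHAPS, 2% DMSO. Stopped with EDTA and WGA SPA beads for scintillation counting. IC50 fitted from % solvent-control activity versus log concentration.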
Chain of PI3Kγ (p110γ) Recombinant Human Protein (P48736 whole entry): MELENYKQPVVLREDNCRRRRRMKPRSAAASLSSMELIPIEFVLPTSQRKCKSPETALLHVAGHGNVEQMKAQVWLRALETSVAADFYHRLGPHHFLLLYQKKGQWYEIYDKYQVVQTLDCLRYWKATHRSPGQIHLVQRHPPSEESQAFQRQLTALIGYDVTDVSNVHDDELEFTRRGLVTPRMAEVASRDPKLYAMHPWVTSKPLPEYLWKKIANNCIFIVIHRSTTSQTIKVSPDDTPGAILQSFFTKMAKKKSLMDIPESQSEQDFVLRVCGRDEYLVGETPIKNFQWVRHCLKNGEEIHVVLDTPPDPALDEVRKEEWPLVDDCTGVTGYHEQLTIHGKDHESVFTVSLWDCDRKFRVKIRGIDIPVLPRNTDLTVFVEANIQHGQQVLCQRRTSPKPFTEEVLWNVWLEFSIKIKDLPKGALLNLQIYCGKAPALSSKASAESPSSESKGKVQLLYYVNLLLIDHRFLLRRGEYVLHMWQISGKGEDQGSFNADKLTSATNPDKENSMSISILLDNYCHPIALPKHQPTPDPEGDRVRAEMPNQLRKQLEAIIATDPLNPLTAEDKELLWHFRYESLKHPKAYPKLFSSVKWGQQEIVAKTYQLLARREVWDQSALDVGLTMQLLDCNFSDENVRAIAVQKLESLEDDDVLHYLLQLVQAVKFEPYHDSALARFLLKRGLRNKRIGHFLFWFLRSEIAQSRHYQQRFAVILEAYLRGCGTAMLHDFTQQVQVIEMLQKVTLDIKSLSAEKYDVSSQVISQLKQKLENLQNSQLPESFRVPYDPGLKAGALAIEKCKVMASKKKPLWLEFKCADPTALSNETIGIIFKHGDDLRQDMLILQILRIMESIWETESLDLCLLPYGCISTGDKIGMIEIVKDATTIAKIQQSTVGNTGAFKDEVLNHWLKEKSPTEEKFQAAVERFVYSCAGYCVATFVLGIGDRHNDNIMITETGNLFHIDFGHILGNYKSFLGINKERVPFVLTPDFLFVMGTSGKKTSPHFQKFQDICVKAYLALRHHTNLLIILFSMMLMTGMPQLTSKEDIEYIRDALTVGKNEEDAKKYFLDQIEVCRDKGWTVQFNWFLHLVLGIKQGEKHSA

Assay [2] has as its target PI3Kδ (p110δ/p85α) Recombinant Human Protein (Homo sapiens (Human), UniProt O00329). Description: PI3Kδ scintillation proximity assay. It counts as biochemical. To be noted: 20 μM PIP2, 2 μM ATP, 3.4 nM PI3Kδ, 120 min, room temperature; read-out: PI3Kδ IC50. A digest of the protocol:
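Recombinant human p110δ/p85α was run at room temperature in 20 mM MOPS pH 6.7, 10 mM MgCl2, 5 mM DTT, 0.03% CHAPS, 2% DMSO. Substrates were 20 µM PIP2 and 2 µM ATP with [γ-33P]ATP. Product was captured overnight on WGA SPA beads and counted by scintillation; IC50 fitted from percent of solvent control versus log concentration.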
(In general: SPA uses beads or plates that emit light when radiolabelled molecules are held near them.)

For assay [3], the system named is Phosphorylated Ribosomal Protein S6 (RPS6) in THP-1 cells. As to the kind of experiment: THP-1 RPS6 ELISA assay. It counts as cell-based, Human. As to conditions: Homo sapiens, serum starved, 2 h compound, 10 nM MCP-1 for 15 min, phospho-RPS6 ELISA, read-out: PI3Kγ_THP1_RPS6_ELISA IC50. A digest of the protocol: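 Phospho-RPS6 in lysates measured by ELISA at 450 nm, corrected at 540 nm, after MCP-1 challenge (10 nM, 15 min) of THP-1 cells that were starved overnight and exposed to test compound for 2 h at 37° C, 2×10^5 cells/well. Curve fit of percent inhibition gives IC50.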
In general terms: In an ELISA, binding on a coated surface is turned into a signal by an enzyme label.

Molecules are shown by their SMILES. Counter-ions that a name gives are not always drawn. Like-named read-outs stand apart in the source and are kept apart here.

Chain of PI3Kδ (p110δ/p85α) Recombinant Human Protein (O00329 whole entry): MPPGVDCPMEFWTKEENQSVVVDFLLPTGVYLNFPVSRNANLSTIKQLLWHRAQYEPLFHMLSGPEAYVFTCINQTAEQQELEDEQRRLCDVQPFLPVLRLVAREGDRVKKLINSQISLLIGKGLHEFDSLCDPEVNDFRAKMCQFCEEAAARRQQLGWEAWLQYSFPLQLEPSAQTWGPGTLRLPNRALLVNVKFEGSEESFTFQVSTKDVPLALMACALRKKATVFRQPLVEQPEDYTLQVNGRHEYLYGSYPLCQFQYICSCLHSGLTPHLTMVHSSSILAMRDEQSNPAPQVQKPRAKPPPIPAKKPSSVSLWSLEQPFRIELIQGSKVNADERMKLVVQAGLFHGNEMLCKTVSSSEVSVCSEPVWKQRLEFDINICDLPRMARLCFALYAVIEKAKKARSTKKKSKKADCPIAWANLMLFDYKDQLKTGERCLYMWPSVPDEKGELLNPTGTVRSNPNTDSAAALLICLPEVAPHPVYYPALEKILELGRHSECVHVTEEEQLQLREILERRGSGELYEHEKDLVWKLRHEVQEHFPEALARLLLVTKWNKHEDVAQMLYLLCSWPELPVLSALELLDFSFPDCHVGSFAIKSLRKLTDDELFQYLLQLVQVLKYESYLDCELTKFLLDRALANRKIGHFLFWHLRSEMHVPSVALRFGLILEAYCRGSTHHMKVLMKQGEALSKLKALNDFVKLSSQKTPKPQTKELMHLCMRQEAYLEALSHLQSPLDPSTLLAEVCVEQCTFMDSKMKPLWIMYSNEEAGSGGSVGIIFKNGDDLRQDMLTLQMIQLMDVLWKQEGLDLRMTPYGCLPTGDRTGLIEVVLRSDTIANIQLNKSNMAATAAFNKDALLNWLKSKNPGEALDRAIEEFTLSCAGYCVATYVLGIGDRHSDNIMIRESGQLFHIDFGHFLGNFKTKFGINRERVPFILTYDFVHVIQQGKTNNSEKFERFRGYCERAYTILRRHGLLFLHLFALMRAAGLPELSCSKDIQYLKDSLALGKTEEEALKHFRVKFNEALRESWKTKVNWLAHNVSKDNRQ
Chain of PI3Kδ (p110δ/p85α) Recombinant Human Protein (P27986 whole entry partner): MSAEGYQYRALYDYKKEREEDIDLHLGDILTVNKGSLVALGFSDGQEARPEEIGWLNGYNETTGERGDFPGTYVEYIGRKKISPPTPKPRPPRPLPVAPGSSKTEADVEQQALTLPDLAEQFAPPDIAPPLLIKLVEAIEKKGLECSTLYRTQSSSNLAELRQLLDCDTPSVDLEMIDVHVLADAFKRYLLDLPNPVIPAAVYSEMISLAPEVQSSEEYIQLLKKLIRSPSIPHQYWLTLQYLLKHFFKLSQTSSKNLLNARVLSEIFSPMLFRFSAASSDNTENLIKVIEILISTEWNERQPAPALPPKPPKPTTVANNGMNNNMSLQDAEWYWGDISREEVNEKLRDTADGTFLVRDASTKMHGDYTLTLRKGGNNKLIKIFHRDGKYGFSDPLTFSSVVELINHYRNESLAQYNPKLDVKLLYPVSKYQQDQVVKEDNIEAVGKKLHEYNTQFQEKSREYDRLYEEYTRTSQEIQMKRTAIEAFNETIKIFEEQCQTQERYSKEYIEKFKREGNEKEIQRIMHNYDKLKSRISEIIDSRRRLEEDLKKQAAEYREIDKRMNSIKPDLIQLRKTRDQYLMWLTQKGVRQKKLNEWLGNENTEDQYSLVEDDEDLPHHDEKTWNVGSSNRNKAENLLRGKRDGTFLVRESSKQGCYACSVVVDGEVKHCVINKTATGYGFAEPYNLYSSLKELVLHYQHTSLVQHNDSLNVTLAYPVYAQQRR

As a reminder, the IC50 is the midpoint of a concentration-inhibition curve. `Cc1ccc(C(O)(C(=O)NC2(C)CNC2)C(F)(F)F)cc1-c1cnc2c(N)nc(C(F)(F)F)cn12` (stereo not drawn) [Example 128, 2-(3-(8-Amino-6-(trifluoromethyl)imidazo[1,2-a]pyrazin-3-yl)-4-methylphenyl)-3,3,3-trifluoro-2-hydroxy-N-(3-methylazetidin-3-yl)propanamide trifluoroacetate salt]: the IC50 is less than 100 nM in assay [1]; less than 100 nM in assay [2]; less than 100 nM in assay [3] (THP-1, THP-1 cells).

Consider `Cc1ccc(C(O)(C(=O)NC23CC(C2)C3)C(F)(F)F)cc1-c1cnc2c(N)nc(C(F)(F)F)cn12` (stereo not drawn) [Example 129, 2-(3-(8-Amino-6-(trifluoromethyl)imidazo[1,2-a]pyrazin-3-yl)-4-methylphenyl)-N-(bicyclo[1.1.1]pentan-1-yl)-3,3,3-trifluoro-2-hydroxypropanamide trifluoroacetate salt], for which the IC50 in assay [1] was less than 100 nM; in assay [2] it was less than 100 nM; in assay [3] (THP-1, THP-1 cells) it was less than 100 nM.

In the case of `Cc1ccc(C(C)(O)C(F)(F)F)cc1-c1cnc2c(N)nc(C#CC3CC3)cn12` (stereo not drawn) [Example 162, 2-(3-(8-Amino-6-(cyclopropylethynyl)imidazo[1,2-a]pyrazin-3-yl)-4-methylphenyl)-1,1,1-trifluoropropan-2-ol trifluoroacetate salt], the IC50 in assay [1] is less than 100 nM; in assay [2], 100 to 500 nM; in assay [3] (THP-1, THP-1 cells), 100 to 500 nM.

Take `Cc1ccc(C(O)(CNC(=O)CF)C(F)(F)F)cc1-c1cnc2c(N)nc(C(F)(F)F)cn12` (stereo not drawn) [Example 214, N-(2-(3-(8-amino-6-(trifluoromethyl)imidazo[1,2-a]pyrazin-3-yl)-4-methylphenyl)-3,3,3-trifluoro-2-hydroxypropyl)-2-fluoroacetamide trifluoroacetate salt]: the results for the IC50 in assay [1], in assay [2] and in assay [3] (THP-1 cells) were less than 100 nM, 100 to 500 nM and 100 to 500 nM, respectively.

On to `CNC(=O)C(C)(C)C(O)(c1ccc(C)c(-c2cnc3c(N)nc(C(F)(F)F)cn23)c1)C(F)(F)F` (stereo not drawn) [Example 262, 3-(3-(8-Amino-6-(trifluoromethyl)imidazo[1,2-a]pyrazin-3-yl)-4-methylphenyl)-4,4,4-trifluoro-3-hydroxy-N,2,2-trimethylbutanamide], for which the IC50 in assay [1] was less than 100 nM; in assay [2], 100 to 500 nM; in assay [3] (THP-1, THP-1 cells), more than 1000 nM.

For `Cc1ccc(C(O)(C(F)(F)F)C(F)(F)F)cc1-c1cnc2c(N)nc(-c3ccnn3C)cn12` [Example 264, 2-(3-(8-Amino-6-(1-methyl-1H-pyrazol-5-yl)imidazo[1,2-a]pyrazin-3-yl)-4-methylphenyl)-1,1,1,3,3,3-hexafluoropropan-2-ol], the IC50 in assay [1] is less than 100 nM; in assay [2] it was less than 100 nM; in assay [3] (THP-1, THP-1 cells), less than 100 nM.

`[2H]C([2H])([2H])c1ccc(C(C)(O)C(F)(F)F)cc1-c1cnc2c(N)nc(-c3ccc(C(C)O)nc3)cn12` (stereo not drawn) [Example 267, 2-(3-(8-Amino-6-(6-(1-hydroxyethyl)pyridin-3-yl)imidazo[1,2-a]pyrazin-3-yl)-4-(methyl-d3)phenyl)-1,1,1-trifluoropropan-2-ol]: the IC50 in assay [1] is less than 100 nM; in assay [2] it was less than 100 nM; in assay [3] (THP-1, THP-1 cells), less than 100 nM.

In the case of `Cc1ccc(C(C)(O)C(F)(F)Cl)cc1-c1cnc2c(N)nc(C(F)(F)F)cn12` (stereo not drawn) [Example 268, 2-(3-(8-Amino-6-(trifluoromethyl)imidazo[1,2-a]pyrazin-3-yl)-4-methylphenyl)-1-chloro-1,1-difluoropropan-2-ol], the IC50 in assay [1] was less than 100 nM; in assay [2], 100 to 500 nM; in assay [3] (THP-1, THP-1 cells), 100 to 500 nM.

Regarding `Cc1ccc(C(C)(O)C(F)(F)F)cc1-c1cnc2c(N)nc(C(=O)NC34CC(C#N)(C3)C4)cn12` (stereo not drawn) [Example 278, 8-Amino-N-(3-cyanobicyclo[1.1.1]pentan-1-yl)-3-(2-methyl-5-(1,1,1-trifluoro-2-hydroxypropan-2-yl)phenyl)imidazo[1,2-a]pyrazine-6-carboxamide trifluoroacetate salt], the IC50 in assay [1] is less than 100 nM; in assay [2], 100 to 500 nM; in assay [3] (THP-1, THP-1 cells), 100 to 500 nM.
